Like-named read-outs stand apart in the source and are kept apart here.
Experiments:
Format in all cases: biochemical
E234G HYPE [1] = biological target: T1, E234G HYPE (Homo sapiens, UniProt Q9BVA6, E234G); test: Fluorescence polarization (FP) microplate autoAMPylation assay with Fl-ATP, E234G HYPE inhibitor HTS, cherrypick validation and concentration-response; conditions: for inhibition at 10 µM: 10 μM compound
T1 construct: Δ102 (aa 103-458) HYPE constructs (WT, E234G, and E234G/H363A); His6-SUMO (cleaved yes); made in house; host or cells: E. coli BL21-DE3-RILP
T1 sequence (Q9BVA6 103-458 E234G): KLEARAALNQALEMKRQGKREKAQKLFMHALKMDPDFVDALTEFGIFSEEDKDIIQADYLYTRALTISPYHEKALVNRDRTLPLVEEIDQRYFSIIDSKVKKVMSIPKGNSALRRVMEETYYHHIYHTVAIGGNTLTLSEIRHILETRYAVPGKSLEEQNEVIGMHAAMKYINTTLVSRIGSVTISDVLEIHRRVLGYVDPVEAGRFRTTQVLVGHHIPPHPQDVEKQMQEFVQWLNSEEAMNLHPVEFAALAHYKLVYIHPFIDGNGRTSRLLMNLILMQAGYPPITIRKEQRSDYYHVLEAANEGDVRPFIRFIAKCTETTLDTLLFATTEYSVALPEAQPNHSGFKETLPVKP
Protocol: Buffer optimization experiments were performed by incubating 0.4 μM of Δ102 HYPE enzyme with 25 nM Fl-ATP (final concentrations) in HTS buffer (50 mM HEPES (pH 7.5), 1 mM MgCl2, 0.1% Triton X-100, 1% DMSO) in the dark at room temperature for 10 min in 384-well black bottom, black wall microplates (20 μL reaction volume). Where specified, 1 mM MgCl2 was replaced with an equivalent concentration of MnCl2, or 0.1% Triton X-100 was replaced with 0.05% or 0.01% Trion X-100. Microplates were snap centrifuged at 1000 g for 10 sec. Microplates were loaded onto a BioTek BioStack NEO2 plate-reader and assessed for fluorescence polarization with 485/530 nm filters and a 55/50 gain adjustment.
A Multidrop 384 reagent dispenser (ThermoFisher) was used to add 0.4 μM HYPE, then 25 nM Fl-ATP (final concentrations) to 384-well black/black microplates (20 μL reaction volume). Both enzyme and nucleotide were dissolved in HTS Buffer. AMPylation Reactions were incubated for 10 min at room temperature in the dark. Microplates were snap centrifuged at 1000 g for 10 sec, then transferred to BioTek BioStack NEO2 plate-reader. Reactions were assessed for fluorescence polarization with 485/530 nm filters and a 55/50 gain adjustment. Z′, S/B, and CV values were determined by fitting the data to Eq. 1, 2, and 3, respectively,
An Echo Liquid Handler (Labcyte) was used to transfer 200 nL of DMSO-dissolved compounds via acoustic-coupled ejection from 10 mM source plates into 384-well black, flat-bottom, black-walled microplates, for a final compound concentration of 10 μM. Compounds were sourced from the following libraries: DIVERset (Chembridge), CNS-Set (Chembridge). The compounds went into columns 3-22 of each plate, while columns 1, 2, 23, and 24 were reserved for equivalent volume of 100% DMSO controls.
A Multidrop 384 reagent dispenser was used to pipette 0.4 μM of WT HYPE (final concentration) dissolved in HTS Buffer into columns 1-22 of the activator plates, and columns 1 and 2 of the inhibitor plates as positive controls. 0.4 μM of E234G HYPE was similarly added to columns 3-24 of the inhibitor plates, and columns 23 and 24 of the […]. Enzymes were then incubated with either compounds or DMSO for 10 min at room temperature.
A Multidrop 384 reagent dispenser was used to pipette 25 nM of Fl-ATP (final concentration) into all wells of each plate, giving a final reaction volume of 20 μL. Plates were then incubated for 10 min at room temperature in the dark, followed by a snap centrifugation at 1000 g for 10 sec. Microplates were loaded onto BioTek BioStack stacker and read in succession for fluorescence polarization with 485/530 nm filters and a 55/50 gain adjustment. Fluorescence polarization values were converted to fractional activation (FA) or fractional inhibition FI) values according to Eq. (3) or (4), respectively,
[formula] [formula] • where μp and μn are the means of the positive (E234G HYPE) and negative (WT HYPE) controls, respectively; and x is the measured value of fluorescence polarization.
Microplate “cherrypicking” validations were performed as described above.
A Multidrop 384 reagent dispenser was used to pipette 0.4 μM of WT or E234G HYPE (final concentrations) dissolved in HTS Buffer into designated microplate wells. 10 μM of DMSO-dissolved compounds (final concentrations) or equivalent volume of 100% DMSO were manually pipetted into their specified wells. Enzymes were incubated with compounds or DMSO for 10 min at room temperature. Reagent dispenser was then used to pipette 25 nM of Fl-ATP (final concentration) into each well, followed by a 10 min incubation at room temperature in the dark. Plates were snap centrifuged at 1000 g for 10 sec, then transferred to BioTek BioStack NEO2 plate-reader. Reactions were assessed for fluorescence polarization with 485/530 nm filters and a 55/50 gain adjustment. EC50 and IC50 values were determined by fitting polarization values to Eq. (5) and (6), respectively, […]

E234G HYPE [2] = biological target: T1, E234G HYPE; test: Fluorescence in-gel autoAMPylation assay with E234G HYPE and Fl-ATP; conditions: 10 μM compound
Protocol: (§1) 1 μM of WT HYPE (final concentration) was preincubated with 10 μM DMSO-dissolved compound (final concentration) or equivalent volume of 100% DMSO at room temperature for 10 min. Reactions were run for 20 hr at 30° C. in the dark and began with the addition of 1 μM Fl-ATP (final concentration). Alternatively, E234G HYPE AMPylation reactions were run at 10 min due to its hyperactivity. All other parameters were held constant. All reactions were performed HTS Buffer (50 mM HEPES, 1 mM MgCl2, 0.1% Triton X-100, pH 7.50). All reactions were quenched with 4×SDS loading dye, boiled for 5 min at 95° C., and samples were run on 12% SDS-PAGE gels. Gels were imaged on a Typhoon 9500 FLA imager (General Electric) for fluorescence at 473 nm. Imaged gels were then stained with Coomassie Brilliant Blue, destained, and imaged for protein concentration. Where specified, 5 μM of T229A BiP (final concentration) was added to reactions before the addition of compound.

[3] = biological target: T2, E234G HYPE AMPylation of T229A BiP (Homo sapiens, UniProt Q9BVA6, E234G); test: Fluorescence in-gel T229A BiP AMPylation assay with E234G HYPE and Fl-ATP; conditions: 10 μM compound
T2 construct: Δ102 (aa 103-458) HYPE constructs (WT, E234G, and E234G/H363A); His6-SUMO (cleaved yes); made in house; host or cells: E. coli BL21-DE3-RILP
T2 sequence (Q9BVA6 103-458 E234G): T1 sequence (Q9BVA6 103-458 E234G)
Protocol: as §1

AMPylation at in vitro saturation point of inhibition (E234G HYPE [1]; 50 μM): zero percent AMPylation
IC50 (concentration-response of E234G HYPE inhibition) (E234G HYPE [1]; FP microplate, inhibitors 0 to 200 μM): low micromolar
inhibition at 10 µM (E234G HYPE [1]; cherrypick validation, same FP assay, read-out: % Inh. Cherry-pick): 29.7%
inhibition at 10 µM (E234G HYPE [1]; initial HTS, normalized to WT and E234G HYPE DMSO controls, read-out: % Inh. HTS): 24.5%
Mean % Inh. (E234G HYPE [1]; mean of HTS and cherrypick): 27.1%
inhibition of T229A BiP AMPylation in gel [3]: confirm the inhibitory properties
SMILES: c1cn(-c2ccc(-c3nnc(-c4ccoc4)o3)cn2)cn1 [Compound I2.10]
inhibition of E234G HYPE autoAMPylation in gel (E234G HYPE [2]): consistently perturbs HYPE autoAMPylation

Reference: US20240382498A1, “NOVEL INHIBITOR OF HYPE-MEDIATED AMPYLATION” (Purdue Research Foundation, priority 2023, published 2024)
